One may read the melting point as the temperature of the solid-liquid transition.

A value given as a limit tells only on which side of the number the result lay.

As for `Cn1nc(C(F)(F)F)n(-c2ccc(N)cc2Cl)c1=S`, the melting point lay in the range of 145 to 147 °C.

`CC(=O)Nc1ccc(SC2SCC(OC(C)=O)C(OC(C)=O)C2OC(C)=O)cc1` (configuration not stated) yielded a melting point of 168 to 174 °C.

As for `O=C1CC[C@@H](COc2cccnc2)N1`, the melting point lay within 121 to 122 °C.

`O=C1C(=Cc2ccc(F)cc2)C2C=CC1CC2` (configuration not stated) showed a melting point of 85 to 86 °C.

`CC(C)(C)OC(=O)NC1CCCCCC=CC2CC2(C(=O)NS(=O)(=O)C2CC2)NC(=O)C2CC(OC(=O)c3ccc(Cl)c(F)c3)CN2C1=O` (configuration not stated) yielded a melting point of 147 to 149 °C.

`O=C(O)CCCCCCC(=O)c1cccnc1` had a melting point of 113 to 115 °C.

Turning to `CCCc1c(OCC(O)COc2ccc(CC(=O)O)cc2F)ccc(C(C)=O)c1O` (configuration not stated), the melting point lay in the range of 137 to 138 °C.

As for `NC(=O)/C=C/c1ccc(F)cc1`, the melting point was 130 °C.

`CCOC(=O)C1=C(C)N(CCOC(=O)c2ccccc2)C(=O)NC1c1ccc(OC)cc1` (configuration not stated) displayed a melting point of 75 °C.

Turning to `COc1ccc(-c2[nH]c(-c3ccc([N+](=O)[O-])c(C)c3)nc2C(=O)O)cc1`, the melting point was in the range of 229 to 230 °C.

Turning to `CS(=O)c1ccc2nc(NC(=N)N)nc(-c3ccccc3)c2c1` (configuration not stated), the melting point lay within 175 to 180 °C.

Consider `N#Cc1c(N2CCc3ccccc3CC2)nc(CO)[nH]c1=O`, for which the melting point lay in the range of 196 to 198 °C.

Consider `Oc1ccc(-c2cc3c(Cl)c(O)ccc3o2)cc1`, for which the melting point fell in the range of 210 to 214 °C.

On to `COC(=O)c1ccccc1S(=O)(=O)NC(=O)n1nc(OCC(F)(F)F)n(C)c1=O`, for which the melting point is 153 °C.

The compound `Cc1c(NC(=O)CC(C)(C)C)cc2c(c1C)OC(C)(C)C2c1cccc(C(C)C)c1` (configuration not stated) had a melting point of 162 to 163 °C.

Regarding `Cn1c(=O)c2c(ncn2CC(O)Cc2noc(CCN3CCCCC3)n2)n(C)c1=O` (configuration not stated), the melting point was 110 to 111 °C.

Regarding `CC(=O)OC(CN1C(=O)N(C(C)=O)C2(CC(C)(C)N(C)C(C)(C)C2)C1=O)CN1C(=O)N(C(C)=O)C2(CC(C)(C)N(C)C(C)(C)C2)C1=O`, the melting point is 105 to 108 °C.

`CN(C(=O)OC(C)(C)C)[C@H](Cc1ccc2ccccc2c1)C(=O)N1CCc2ccccc2C1`: the melting point lay in the range of 121 to 126 °C.

The compound `COC(CC(=O)c1ccc(Br)cc1)C(=O)c1ccc(Br)cc1` (configuration not stated) registered a melting point of 153 to 154 °C.

On to `Cc1ccc(S(=O)(=O)N2[C@@H](C(N)=O)CC[C@H]2c2ccccc2)cc1` (racemic), for which the melting point is 130 °C.

The compound `Cn1nc(C#N)c2ccccc21` displayed a melting point of 73 °C.

For `CCCCOc1cc(/C=C(\OCC)C(=O)O)ccc1OCCc1ccc(OS(=O)(=O)CCCC)cc1`, the melting point came to 96 °C.

As for `N#CNC(=Nc1ccncc1)NCCCCCOc1ccccc1`, the melting point was in the range of 188 to 189 °C.

Compound `Cc1ccc(NC(=O)Oc2ccc3c(c2)N(Cc2ccccc2)CCC3)cc1` gave a melting point of 98 °C.

The compound `COc1cc(OC)c2c3c(n(Cc4ccccc4)c2c1)CCCC3C(N)=O` (configuration not stated) gave a melting point of 190 to 192 °C.

Compound `CCOc1ccc2c(c1)CC(=O)N2C1CCCCO1` (configuration not stated) had a melting point of 108 to 110 °C.

The compound `CSCc1cnc2c([N+](=O)[O-])cccc2c1Cl` had a melting point of 96 to 98 °C.

The compound `COc1ccc(Cn2cnc3c(-c4ccco4)nc(C(C)=O)nc32)cc1` displayed a melting point of 166 to 167 °C.

In turn, `O=C(c1ccccc1)N1CCC(O)CC1` yielded a melting point of 91.5 to 92 °C.

As to `O=Cc1cc2n(c1)Cc1ccccc1-n1ccnc1-2`, the melting point lay within 203 to 205 °C.

`Nc1nc2[nH]c(CCCCCCc3ccc(C(=O)N[C@@H](CCC(=O)O)C(=O)O)s3)cc2c(=O)[nH]1` came in with a melting point of 183 to 184 °C.

With `COc1ccc(N2CCN(c3cccnn3)CC2)cc1`, the melting point was 133 °C.

Compound `Cc1ccc(-n2nc(C)c(CC(=O)O)c2C)cc1` yielded a melting point of 119 to 121 °C.

The compound `Cc1nc(O)c(Br)cc1Br` gave a melting point greater than 225 °C.

As to `Cc1cc(CCCCCCCCCCc2cc(C)c(O)c(C(C)(C)C)c2)cc(C(C)(C)C)c1O`, the melting point was 96 to 98 °C.

`O=C(C=NO)Nc1ccccc1F` returned a melting point of 120 °C.

`Cc1cc2c(-c3ccccc3C)c(C#N)n(C)c(=O)c2cc1C`: the melting point fell in the range of 217 to 218 °C.

The compound `CCOCCOc1cc(C(O)C#Cc2ccc(C(=O)O)c(O)c2)cc2c1C(C)(C)CCC2(C)C` (configuration not stated) yielded a melting point of 120 °C.

`CCCCCCCN(CCc1ccc(OC(C)(C)C(=O)O)cc1)C(=O)Nc1ccc(OC)cc1OC` gave a melting point of 95 to 96 °C.

The compound `CN(C)c1ccc(C=O)c([N+](=O)[O-])c1` yielded a melting point of 115 to 116 °C.

In turn, `O=C(O)CCc1ccc(Sc2ccc(CCC(=O)O)cc2C(F)(F)F)c(C(F)(F)F)c1` registered a melting point of 175 to 178 °C.

For `COc1cc(NCCC(=O)O)c(C(C)=O)cc1OC`, the melting point lay within 150 to 152 °C.

For the compound `O=C(O)C1CCc2c(Cc3ccc(Cl)cc3)cccc21` (configuration not stated), the melting point is 127 to 129 °C.

As to `CCCN(c1cccc(-c2ccnc3c([N+](=O)[O-])cnn23)c1)S(=O)(=O)c1ccc(OC)cc1`, the melting point is 184 to 185 °C.

Turning to `Nc1nccc(-c2c[nH]c3nccc(-c4ccccc4)c23)n1`, the melting point was greater than 210 °C.

As to `O=C(NC1CN2CCC1CC2)C(O)(c1cccs1)c1cccs1` (configuration not stated), the melting point was found to be 169 °C.

`CC(C)(Oc1ccc(CCC(=O)c2ccc(-c3ccc(C(F)(F)F)cc3)s2)c(Cl)c1Cl)C(=O)O` came in with a melting point of 153 to 154 °C.

For `CCOc1cc(-c2cc(C(F)(F)F)n3cnc(-c4ccncc4)c3n2)ccc1C(F)(F)F`, the melting point is 212 °C.

For `NC(=O)c1cc(NCc2ccccc2Cl)c([N+](=O)[O-])cc1[N+](=O)[O-]`, the melting point fell in the range of 158 to 161 °C.

`C#CCOC(=O)c1ccc(O)cc1O`: the melting point lay in the range of 104 to 106 °C.

`CC(C)n1nc(-c2c(-c3ccccc3)nn3ccc(OCCN4CCCCC4)cc23)ccc1=O`: the melting point turned out to be 144 °C.

Consider `Cc1nc2n(c(=O)c1CCN1CCC(=C(c3ccccc3)c3ccccc3)CC1)CCCS2`, for which the melting point was found to be 176 °C.

In turn, `NC(=O)c1ccc2c(c1)CCOC2CCN1CCN(c2ccc(Cl)cc2)CC1` (configuration not stated) registered a melting point of 169 to 171 °C.

Take `CC(CC(Br)CO)C1CCC2C(O)CCCC12C` (configuration not stated): the melting point fell in the range of 153 to 154 °C.

Take `CCCCCCCCCCCCCCCCNC(=O)c1cccnc1`: the melting point lay within 85 to 87 °C.

Regarding `CCCn1cc(C(=O)NCc2ccc(Cl)cc2)c(=O)c2cc(CCl)oc21`, the melting point was in the range of 160 to 162 °C.

Compound `CCN1CCC(c2c[nH]c3ccc(NS(C)(=O)=O)cc23)CC1` gave a melting point of 179 to 181 °C.

In turn, `COc1ccc(Cc2nc3cccc(NCc4cccnc4)c3o2)cc1OC1CCCC1` yielded a melting point of 90 to 92 °C.

Compound `CCNc1nc2ccccc2n2c(C(C)C)nnc12` gave a melting point of 209 to 211 °C.

Compound `COC(=O)N1C2CCC1CC(=O)C2` returned a melting point of 60 to 61 °C.

Take `FC(F)(F)c1cccc(C2=NOC(CNC(=S)N3CCOCC3)C2)c1` (configuration not stated): the melting point lay in the range of 118 to 120 °C.

For `CN(C)C=Cc1ccc([N+](=O)[O-])c(OCc2ccccc2)c1`, the melting point lay within 111 to 114 °C.

Consider `C#Cc1cn(C2CC(O)C(CO)O2)c(=O)[nH]c1=O` (configuration not stated), for which the melting point is 175 °C.

The compound `O=C(NS(=O)(=O)c1ccc(Oc2cccc(C(F)(F)F)c2)cc1)c1ccc(C(=O)NCCO)nc1` had a melting point of 167 to 168 °C.

In turn, `CCN1C(=O)C(C)(C)C(=O)N(C)c2cc(CN(CCn3ccc4oc(C)cc4c3=O)Cc3ccc4c(c3)OCO4)ccc21` gave a melting point of 180 to 182 °C.

`Cc1c(CC(=O)NCCO[N+](=O)[O-])cc(-c2ccc(S(C)(=O)=O)cc2)n1-c1ccc(F)cc1` registered a melting point of 135 °C.

In the case of `O=CN(Cc1cccs1)C1(c2ccc(Cl)cc2)CCC1`, the melting point is 114 to 119 °C.

Compound `COc1cccc(C(=O)Nc2nc(C)c(C(=O)NCc3ccccc3)s2)c1` gave a melting point of 75 to 77 °C.

Regarding `COc1cccc(-c2nn3c(c2C(=O)O)-c2ccccc2CC3)c1`, the melting point was 190 °C.

Turning to `COc1ccc2c(c1)C(=O)c1ccc(C(=O)O)cc1S2(=O)=O`, the melting point was 324 to 327 °C.

Consider `CC1(Cl)C=CC2=C(c3cccc(CCCC(=O)O)c3)C(CC(=O)Nc3ccc(F)cc3C(F)(F)F)C(=O)OC2=C1` (configuration not stated), for which the melting point worked out at 196 °C.

`CCc1cc(NC2=NCCN2C(C)=O)n(C)n1` yielded a melting point of 160 to 162 °C.

On to `N#Cc1ccccc1Oc1ccc(-c2cn(C3CCOCC3)c3ncnc(N)c23)cc1`, for which the melting point was 125 °C.

The compound `COC(=O)c1cc(-c2c(OC)cccc2OC)n(-c2cc(C(=O)O)ccc2C)n1` yielded a melting point of 189 °C.

The compound `Cc1ccc2c3c(ccc2n1)OC[C@H](CN1CCCN(c2ccc4cc(C#N)ccc4n2)CC1)O3` returned a melting point of 80 to 85 °C.

As to `COCOc1c(NC(=O)Nc2ccccc2)cc(OC)cc1C(C)(C)C`, the melting point lay within 121 to 123 °C.

As for `COC(=O)c1ccc(CCc2cnc3nc(N)nc(O)c3c2)cc1`, the melting point is greater than 300 °C.

Compound `COc1ccc(CCOc2ccc(C(=O)N/C(=C\c3ccc(OCC(F)F)cc3)C(=O)NCCO)cc2)cc1` displayed a melting point of 172 to 174 °C.

Consider `Cn1cc(S(N)(=O)=O)c(=O)c2ccccc21`, for which the melting point fell in the range of 230 to 231 °C.

Take `COc1ccc(NC(=O)c2cc([N+](=O)[O-])ccc2NC(=O)c2ccc(C(C)(C)C)cc2)cc1`: the melting point lay in the range of 210 to 211 °C.

As for `O=c1oc2cc(O)ccc2c(O)c1C1=CCOc2oc3ccccc3c(=O)c21`, the melting point is greater than 300 °C.

Take `CC(C)(NCCONC(C)(C)C(=O)CCn1ccnc1[N+](=O)[O-])C(=O)CCn1ccnc1[N+](=O)[O-]`: the melting point was in the range of 90 to 92 °C.

For `COc1cc(COc2nn(-c3ccccc3)cc2/C=C2\SC(=O)N(C)C2=O)ccc1OCc1nc(-c2ccco2)oc1C`, the melting point lay in the range of 215 to 216 °C.

`Cn1c(=NN)sc2ccccc21` gave a melting point of 134 °C.

Compound `COC(=O)CCn1nc(-c2c(-c3ccccc3)nn3ccccc23)ccc1=O` registered a melting point of 133 to 134 °C.

In turn, `COc1cc(OC)c2ncc(C(=O)NCc3ccc(Cl)cc3)c(O)c2c1` had a melting point of 270 to 271 °C.

The compound `COC(=O)c1cc(C)cc(OC)c1C1=CC(=O)c2c(O)cccc2C1=O` registered a melting point of 140 to 143 °C.

The values above are taken from a melting point compilation (Tetko et al.; mined from patent text by program, amines drawn as free bases though some values may be those of a salt).
